Measured values: the NIST ThermoML archive (doi:10.1021/je4007019)

Assay: molar heat capacity at constant pressure; xn = mol fraction of the nth substance listed
Settings: Liquid, Large sample (1 g) DSC

CCCC [butane] + C
molar heat capacity at constant pressure [J/K/mol]
Settings | 118.15 K | 128.15 K | 138.15 K | 148.15 K | 158.15 K | 168.15 K | 178.15 K
5050 kPa, x2 = 0.95 | – | – | – | 62.44 | 64.49 | 67.9 | 73.38
5150 kPa, x2 = 0.6 | 76.47 | 76.37 | 77.25 | 77.85 | 78.21 | 78.34 | –
5150 kPa, x2 = 0.88 | 61.84 | 62.6 | 63.49 | 64.92 | 66.55 | 68.32 | –

C [methane] + CCC
molar heat capacity at constant pressure [J/K/mol]
Settings | 108.15 K | 118.15 K | 128.15 K | 143.15 K | 153.15 K | 163.15 K
4700 kPa, x1 = 0.81 | 59.46 | 59.69 | 60.46 | 61.47 | 62.96 | 63.63
5200 kPa, x1 = 0.82 | 59.21 | 59.52 | 60.05 | 61.36 | 62.9 | 63.97
6000 kPa, x1 = 0.81 | 57.53 | 58.6 | 59.05 | 60.8 | 62.56 | 63.41
